Measurements published in PubChem BioAssay AID248 (DTP/NCI, 2004).
Toxic doses and inconclusive results are not listed. No stated cut-off is given here; in the data, active means T/C of 150% or more; inactive means T/C below 125%.

System: L1210 leukemia ip in BDF1 mice, survival T/C
Assay: NCI In Vivo Anticancer Drug Screen. Data for tumor model L1210 Leukemia (intraperitoneal) in B6D2F1 (BDF1) mice
Conditions: endpoint: mean survival time, higher = longer survival
Method in brief: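 Tumor was transplanted into mice, which were then dosed with test compound or vehicle alone. Survival was recorded for each group, and the treated figure was expressed relative to the control figure.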

[1] = dose: 100.0 mg/kg/injection, schedule: Q01DX009 (ip), vehicle: saline
[2] = dose: 100.0 mg/kg/injection, schedule: Q04DX003 (ip), vehicle: saline
[3] = dose: 200.0 mg/kg/injection, schedule: Q01DX009 (ip), vehicle: saline
[4] = dose: 200.0 mg/kg/injection, schedule: Q04DX003 (ip), vehicle: saline
[5] = dose: 400.0 mg/kg/injection, schedule: Q01DX009 (ip), vehicle: saline
[6] = dose: 400.0 mg/kg/injection, schedule: Q04DX003 (ip), vehicle: saline
[7] = dose: 100.0 mg/kg/injection, schedule: Q01DX009 (ip), vehicle: Klucel (hydroxypropylcellulose) (HPC)
[8] = dose: 100.0 mg/kg/injection, schedule: Q04DX003 (ip), vehicle: Klucel (hydroxypropylcellulose) (HPC)
[9] = dose: 200.0 mg/kg/injection, schedule: Q01DX009 (ip), vehicle: Klucel (hydroxypropylcellulose) (HPC)
[10] = dose: 200.0 mg/kg/injection, schedule: Q04DX003 (ip), vehicle: Klucel (hydroxypropylcellulose) (HPC)
[11] = dose: 100.0 mg/kg/injection, schedule: Q01DX001 (ip), vehicle: saline
[12] = dose: 400.0 mg/kg/injection, schedule: Q01DX009 (ip), vehicle: Klucel (hydroxypropylcellulose) (HPC)

Measured: T/C

O=S(=O)(O)c1cc(Cl)cc(Cl)c1O
inactive: [1] 96 % of control | [2] 113 % of control | [3] 100 % of control | [4] 105 % of control | [5] 105 % of control | [6] 107 % of control

N=C(N)SCCSC(=N)N
inactive: dose: 100.0 mg/kg/injection, schedule: Q04DX003 (ip), vehicle: saline sonified 93 % of control

CCCCOP1(=O)C=C(C)CC1 (centres undefined)
inactive: dose: 100.0 mg/kg/injection, schedule: Q04DX003 (ip), vehicle: saline with Tween-80 90 % of control | dose: 200.0 mg/kg/injection, schedule: Q04DX003 (ip), vehicle: saline with Tween-80 97 % of control | dose: 400.0 mg/kg/injection, schedule: Q04DX003 (ip), vehicle: saline with Tween-80 92 % of control

O=Cc1ccc(N2CCCCC2)cc1
inactive: [7] 100 % of control | [8] 101 % of control | [9] 107 % of control | [10] 95 % of control | dose: 400.0 mg/kg/injection, schedule: Q04DX003 (ip), vehicle: Klucel (hydroxypropylcellulose) (HPC) 89 % of control

N#CC(OC(=O)c1ccccc1)c1ccc([N+](=O)[O-])cc1 (centres undefined)
inactive: [11] 102 % of control

C=CCOP(=O)(OCC=C)OCC=C
inactive: dose: 50.0 mg/kg/injection, schedule: Q01DX009 (ip), vehicle: Klucel (hydroxypropylcellulose) (HPC) 97 % of control | dose: 50.0 mg/kg/injection, schedule: Q04DX003 (ip), vehicle: Klucel (hydroxypropylcellulose) (HPC) 99 % of control | [7] 97 % of control | [8] 91 % of control | [9] 98 % of control | [10] 93 % of control

O=C(CNC(=O)c1ccccc1)N/N=C/c1ccc(Cl)cc1Cl
inactive: dose: 100.0 mg/kg/injection, schedule: Q01DX009 (ip), vehicle: saline with Tween-80 94 % of control | dose: 200.0 mg/kg/injection, schedule: Q01DX009 (ip), vehicle: saline with Tween-80 89 % of control | dose: 400.0 mg/kg/injection, schedule: Q01DX009 (ip), vehicle: saline with Tween-80 98 % of control

Cc1cccc(C)c1OC(=O)NCCCCCCNC(=O)Oc1c(C)cccc1C
inactive: [7] 102 % of control | [9] 92 % of control | [12] 92 % of control

CC(C)(C)NO
inactive: dose: 100.0 mg/kg/injection, schedule: Q01DX001 (ip), vehicle: Klucel (hydroxypropylcellulose) (HPC) 113 % of control | [7] 108 % of control | dose: 200.0 mg/kg/injection, schedule: Q01DX001 (ip), vehicle: Klucel (hydroxypropylcellulose) (HPC) 101 % of control | [9] 103 % of control | dose: 400.0 mg/kg/injection, schedule: Q01DX001 (ip), vehicle: Klucel (hydroxypropylcellulose) (HPC) 98 % of control | [12] 101 % of control

CCC(C)C(CCCCN1CCCC1)(CNC(=O)CN(CC)CC)c1cccc2ccccc12 (centres undefined)
inactive: dose: 12.5 mg/kg/injection, schedule: Q01DX009 (ip), vehicle: saline 95 % of control | dose: 12.5 mg/kg/injection, schedule: Q04DX003 (ip), vehicle: saline 92 % of control | dose: 25.0 mg/kg/injection, schedule: Q01DX009 (ip), vehicle: saline 101 % of control | dose: 25.0 mg/kg/injection, schedule: Q04DX003 (ip), vehicle: saline 93 % of control | dose: 50.0 mg/kg/injection, schedule: Q01DX009 (ip), vehicle: saline 106 % of control | dose: 50.0 mg/kg/injection, schedule: Q04DX003 (ip), vehicle: saline 92 % of control

CNc1ccccc1C=O
inactive: [11] 94 % of control | dose: 200.0 mg/kg/injection, schedule: Q01DX001 (ip), vehicle: saline 97 % of control | dose: 400.0 mg/kg/injection, schedule: Q01DX001 (ip), vehicle: saline 100 % of control

O=C(Cn1ccc(=O)[nH]c1=O)N1CCC2(CC1)SSC1(CCN(C(=O)Cn3ccc(=O)[nH]c3=O)CC1)S2
inactive: [1] 106 % of control | [2] 97 % of control | [3] 98 % of control | [4] 95 % of control | [5] 93 % of control | [6] 92 % of control
